# Assay results: patent US20250099448A1, “HETEROCYCLIC COMPOUNDS” (Hoffmann-La Roche Inc., priority 2022, published 2025)
# Molecular target: T1, MAGL protein (Homo sapiens, UniProt Q99685)
# T1 sequence (Q99685 1-303): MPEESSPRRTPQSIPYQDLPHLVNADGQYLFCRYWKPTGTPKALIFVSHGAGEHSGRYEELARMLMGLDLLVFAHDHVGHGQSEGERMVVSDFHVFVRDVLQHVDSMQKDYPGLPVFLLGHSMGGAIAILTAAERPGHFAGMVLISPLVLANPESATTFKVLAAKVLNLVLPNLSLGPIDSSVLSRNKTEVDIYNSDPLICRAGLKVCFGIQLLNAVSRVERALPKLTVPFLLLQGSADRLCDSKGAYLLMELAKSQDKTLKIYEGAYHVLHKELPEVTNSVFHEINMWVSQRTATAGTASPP
# Assay: 2-AG assay: MAGL inhibitory activity by hydrolysis of 2-arachidonoylglycerol to arachidonic acid, followed by mass spectrometry
# Type: biochemical
# Conditions: 8 μM 2-arachidonoylglycerol, 15 min preincubation, 30 min reaction at RT, RapidFire MS readout
# Procedure: Compounds of formula (I) were profiled for MAGL inhibitory activity by determining the enzymatic activity by following the hydrolysis of the natural substrate 2-arachidonoylglycerol (2-AG) resulting in arachidonic acid, which can be followed by mass spectrometry. This assay is hereinafter abbreviated “2-AG assay”. The 2-AG assay was carried out in 384 well polypropylene assay plates. Compound dilutions were made in 100% DMSO in a polypropylene plate in 3-fold dilution steps to give a final concentration range in the assay from 12.5 μM to […]. Compound dilutions were added to MAGL protein in assay buffer (50 mM TRIS, 1 mM EDTA, 0.01% (v/v) Tween-20, 2.5% (v/v) DMSO). After shaking, the plate was incubated for 15 min at RT. To start the reaction, 2-arachidonoylglycerol in assay buffer was added. The final concentrations in the assay was […] for MAGL protein and 8 μM 2-arachidonoylglyerol. After shaking and 30 min incubation at RT, the reaction was quenched by the addition of two assay volumes of acetonitrile containing 4 μM of d8-arachidonic acid. The amount of arachidonic acid formed was traced by an online SPE system (Agilent Rapidfire) coupled to a triple quadrupole mass spectrometer. A C18 SPE cartridge (Agilent G9205A) was used in an acetonitrile/water liquid setup. The mass spectrometer was operated in negative electrospray mode following the mass transitions 303.1→259.1 for arachidonic acid and 311.1→267.0 for d8-arachidonic acid. The activity of the compounds was calculated based on the ratio of intensities [arachidonic acid/d8-arachidonic acid].
row,IC50,Compound
1,806 nM,O=C(N1CCN(Cc2ccc(C(F)(F)F)cn2)CC1)N1CC2(CC(c3nnc(C4CC4)[nH]3)C2)C1 [Example 876]
2,300 nM,"Cc1nc(CN2CCN(C(=O)N3CC4(CC(c5nc(C6CC6)n[nH]5)C4)C3)CC2)co1 [Example 879, [6-(3-cyclopropyl-1H-1,2,4-triazol-5-yl)-2-azaspiro[3.3]heptan-2-yl]-[4-[(2-methyloxazol-4-yl)methyl]piperazino]methanone]"
3,832 nM,"Cc1ncsc1CN1CCN(C(=O)N2CC3(CC(c4nc(C5CC5)n[nH]4)C3)C2)CC1 [Example 880, [6-(3-cyclopropyl-1H-1,2,4-triazol-5-yl)-2-azaspiro[3.3]heptan-2-yl]-[4-[(4-methylthiazol-5-yl)methyl]piperazino]methanone]"
4,670 nM,"Cc1nn(C)c(Cl)c1CN1CCN(C(=O)N2CC3(CC(c4nc(C5CC5)n[nH]4)C3)C2)CC1 [Example 881, [4-[(5-chloro-1,3-dimethyl-pyrazol-4-yl)methyl]piperazino]-[6-(3-cyclopropyl-1H-1,2,4-triazol-5-yl)-2-azaspiro[3.3]heptan-2-yl]methanone]"
5,352 nM,"COc1cc(C(N)=O)ccc1COC1CCN(C(=O)N2CC3(CC(c4nnc(C5CC5)[nH]4)C3)C2)CC1 [Example 885, 4-[[1-[6-(5-cyclopropyl-4H-1,2,4-triazol-3-yl)-2-azaspiro[3.3]heptane-2-carbonyl]-4-piperidyl]oxymethyl]-3-methoxy-benzamide]"
6,34 nM,"COc1cc(Cl)ccc1CN(C)C1CN(C(=O)N2CC3(CC(c4nnc(C5CC5)[nH]4)C3)C2)C1 [Example 891, [3-[(4-chloro-2-methoxy-benzyl)-methyl-amino]azetidin-1-yl]-[6-(5-cyclopropyl-4H-1,2,4-triazol-3-yl)-2-azaspiro[3.3]heptan-2-yl]methanone]"
7,12.3 nM,"CS(=O)(=O)c1cc(Cl)ccc1CC1CC2(CCN(C(=O)N3CC4(CC(c5nnc(C6CC6)[nH]5)C4)C3)C2)C1 (centres unmarked) [Example 892, [2-(4-chloro-2-mesyl-benzyl)-6-azaspiro[3.4]octan-6-yl]-[6-(5-cyclopropyl-4H-1,2,4-triazol-3-yl)-2-azaspiro[3.3]heptan-2-yl]methanone]"
8,95.2 nM,"COc1cc(Cl)ccc1CN(C)C1CCN(C(=O)N2CC3(CC(c4nnc(C5CC5)[nH]4)C3)C2)CC1 [Example 893, [4-[(4-chloro-2-methoxy-benzyl)-methyl-amino]piperidino]-[6-(5-cyclopropyl-4H-1,2,4-triazol-3-yl)-2-azaspiro[3.3]heptan-2-yl]methanone]"
9,23.5 nM,"Cc1csc(CN2CC3(C2)CN(C(=O)N2CC4(CC(c5nnc(C6CC6)[nH]5)C4)C2)C3)n1 [Example 895, [6-(5-cyclopropyl-4H-1,2,4-triazol-3-yl)-2-azaspiro[3.3]heptan-2-yl]-[6-[(4-methylthiazol-2-yl)methyl]-2,6-diazaspiro[3.3]heptan-2-yl]methanone]"
10,100 nM,NC(=O)c1cc(Cl)cnc1OCC1CCN(C(=O)N2CC3(CC(c4nc(C5CC5)n[nH]4)C3)C2)CC1 [Example 899]
11,3110 nM,"Cn1ccc(CN2CC3(C2)CN(C(=O)N2CC4(CC(c5nc(C6CC6)n[nH]5)C4)C2)C3)n1 [Example 902, [6-(3-cyclopropyl-1H-1,2,4-triazol-5-yl)-2-azaspiro[3.3]heptan-2-yl]-[6-[(1-methylpyrazol-3-yl)methyl]-2,6-diazaspiro[3.3]heptan-2-yl]methanone]"
12,125 nM,O=C(N1CCC(COc2ccc(C(F)(F)F)nc2)CC1)N1CC2(CC(c3nnc(C4CC4)[nH]3)C2)C1 [Example 903]
13,159 nM,COc1cc(COC2CCN(C(=O)N3CC4(CC(c5nc(C6CC6)n[nH]5)C4)C3)CC2)ccc1C#N [Example 904]

# The next lines start with the compound.
row,Compound,IC50
1,"Cc1cn(-c2ccc(C3CN(C(=O)N4CC5(CC(c6nnc(C7CC7)[nH]6)C5)C4)C3)cc2)cn1 [Example 806, [6-(5-cyclopropyl-4H-1,2,4-triazol-3-yl)-2-azaspiro[3.3]heptan-2-yl]-[3-[4-(4-methylimidazol-1-yl)phenyl]azetidin-1-yl]methanone]",9.72 nM
2,"O=C(N1CC2(CC(c3nnc(C4CC4)[nH]3)C2)C1)C12C3C4C1C1C2C3C41Nc1cnc(C(F)(F)F)cn1 (centres unmarked) [Example 811, [6-(5-cyclopropyl-4H-1,2,4-triazol-3-yl)-2-azaspiro[3.3]heptan-2-yl]-[4-[[5-(trifluoromethyl)pyrazin-2-yl]amino]cuban-1-yl]methanone]",0.43 nM
3,Cc1cc(C(F)(F)F)cnc1OC1CC2(CCN(C(=O)N3CC4(CC(c5nc(C6CC6)n[nH]5)C4)C3)CC2)C1 [Example 836],0.08 nM
4,"Cc1sc(-c2ccc(C3CN(C(=O)N4CC5(CC(c6nnc(C7CC7)[nH]6)C5)C4)C3)cc2)nc1C(C)O (centres unmarked) [Example 840, [6-(5-cyclopropyl-4H-1,2,4-triazol-3-yl)-2-azaspiro[3.3]heptan-2-yl]-[3-[4-[4-(1-hydroxyethyl)-5-methyl-thiazol-2-yl]phenyl]azetidin-1-yl]methanone]",2.91 nM
5,O=C(N1CCN(Cc2ccc(C(F)(F)F)nc2)CC1)N1CC2(CC(c3nnc(C4CC4)[nH]3)C2)C1 [Example 842],133 nM
6,"NC1(c2nnc(C3CC4(C3)CN(C(=O)N3CC5(CC(Cc6ccc(C(F)(F)F)cc6F)C5)C3)C4)[nH]2)CC1 [Example 852, [6-[5-(1-aminocyclopropyl)-4H-1,2,4-triazol-3-yl]-2-azaspiro[3.3]heptan-2-yl]-[6-[[2-fluoro-4-(trifluoromethyl)phenyl]methyl]-2-azaspiro[3.3]heptan-2-yl]methanone]",0.06 nM
7,O=C(N1CC2(CC(Cc3ccc4c(C(F)(F)F)cn(CCO)c4n3)C2)C1)N1CC2(CC(c3nc(C4CC4)n[nH]3)C2)C1 [Example 858],0.02 nM
8,COc1cc(C#N)ccc1COC1CCN(C(=O)N2CC3(CC(c4nnc(C5CC5)[nH]4)C3)C2)CC1 [Example 861],59.6 nM
9,O=C(N1CCC(c2nn(C[C@H](O)C(F)(F)F)c3ccc(Cl)cc23)CC1)N1CC2(CC(c3nnc(C4CC4)[nH]3)C2)C1 [Example 864],14.3 nM
10,"O=C(N1CCC(c2nn(C[C@@H](O)C(F)(F)F)c3ccc(Cl)cc23)CC1)N1CC2(CC(c3nnc(C4CC4)[nH]3)C2)C1 [Example 865, [4-[5-chloro-1-[(2R)-3,3,3-trifluoro-2-hydroxy-propyl]indazol-3-yl]piperidino]-[6-(5-cyclopropyl-4H-1,2,4-triazol-3-yl)-2-azaspiro[3.3]heptan-2-yl]methanone]",19.4 nM
11,"O=C(c1ccc(-c2ccccn2)s1)N1CCN(C(=O)N2CC3(CC(c4nnc(C5CC5)[nH]4)C3)C2)CC1 [Example 870, [4-[6-(5-cyclopropyl-4H-1,2,4-triazol-3-yl)-2-azaspiro[3.3]heptane-2-carbonyl]piperazino]-[5-(2-pyridyl)-2-thienyl]methanone]",821 nM
12,"CNc1ccc(C(=O)N2CCN(C(=O)N3CC4(CC(c5nnc(C6CC6)[nH]5)C4)C3)CC2)cc1 [Example 871, [4-[6-(5-cyclopropyl-4H-1,2,4-triazol-3-yl)-2-azaspiro[3.3]heptane-2-carbonyl]piperazino]-[4-(methylamino)phenyl]methanone]",342 nM
13,"Cc1csc(C(=O)N2CCN(C(=O)N3CC4(CC(c5nnc(C6CC6)[nH]5)C4)C3)CC2)c1 [Example 872, [4-[6-(5-cyclopropyl-4H-1,2,4-triazol-3-yl)-2-azaspiro[3.3]heptane-2-carbonyl]piperazino]-(4-methyl-2-thienyl)methanone]",1040 nM
